From PMC13144739, “Global analysis of cancer cell responses to USP9X inhibition” (The EMBO Journal, 2026)
“And” between values parts separate entries of the source, which are not always exact repeats. Identical values can stand only once.

How the values were obtained:
USP9X/USP24 chimera Δβ = biological target: T1, USP9X/USP24 chimera Δβ (Homo sapiens, UniProt Q93008, A1766S/D1761E/DEL1924-1943/K1759R/L1762V/Y1757F); assay: Ub-Rho cleavage assay, USP9X/USP24 chimera Δβ; format: biochemical
T1 construct: His/SUMO (pOPIN-S vector) (N, cleaved yes); made in house; host or cells: E. coli BL21
T1 sequence (Q93008 with tags, fused parts or gaps Y1757F/K1759R/D1761E/L1762V/A1766S/DEL1924-1943): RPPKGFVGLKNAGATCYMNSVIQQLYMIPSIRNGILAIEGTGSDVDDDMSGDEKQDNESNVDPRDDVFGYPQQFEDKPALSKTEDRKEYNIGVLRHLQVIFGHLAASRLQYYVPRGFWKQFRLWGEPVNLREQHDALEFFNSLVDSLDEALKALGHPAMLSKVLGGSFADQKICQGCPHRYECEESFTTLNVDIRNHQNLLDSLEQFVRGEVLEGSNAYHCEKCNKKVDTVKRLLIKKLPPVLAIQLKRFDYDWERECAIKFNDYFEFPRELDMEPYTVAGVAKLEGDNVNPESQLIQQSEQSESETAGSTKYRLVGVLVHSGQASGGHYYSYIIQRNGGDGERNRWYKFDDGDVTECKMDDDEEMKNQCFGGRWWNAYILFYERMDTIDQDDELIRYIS
Source text: An expression construct for the USP9X catalytic domain (aa 1551–1970, […]: Q93008-1), was codon optimised for bacterial expression, synthesised in gBlock format (Integrated DNA Technologies) and cloned into the pOPIN-S vector (Berrow et al, [2007]), which was digested with KpnI and HindIII using In-Fusion™ HD cloning (Takara Clontech). […] For the USP9X Δβ catalytic domain a deletion construct ΔE1924-K1943 and for USP9X/USP24 chimera, a construct with USP9X Y1757-A1766 replaced with the USP24 (NCBI Reference Sequence: NP_056121) aa motif […] was used. All constructs were confirmed by Sanger sequencing (AGRF).
The reaction was stopped through the addition of 10 mM citric acid. The assay was performed in 384-well format with a total reaction volume of 16 µL. Data was collected using the ClarioSTAR plate reader (BMG Labtech) at an emission of 535 nm. […] IC50 values presented in our study are the mean of three independent biological repeats unless indicated otherwise.

USP24 = assay: DUBprofiler DUB selectivity panel, USP24; format: biochemical, human; settings: 50 µM compound
Protocol: UAF1 was added to the USP1, USP12 and USP46 reactions (with WDR20 additionally added to the USP12 and USP46 reactions), respectively. Ubiquitin was added to the USP5 reaction at KD. Proteasome-VS was added to the USP14 reaction at KD. OTUD5 p177S was used. The reaction for AMSH-LP was supplemented with Zinc.

DLD-1 cells = assay: Colony formation assay, DLD-1; format: cell-based, human; settings: 10 µM, 7–12 days
Protocol: (§1) Cells were seeded at low density (200–4000 cells per well) after initial optimisation in a six-well tissue culture-treated plate (Falcon). Twenty-four hours post seeding, media was replaced, and the inhibitor was added. Cells were left to grow into colonies between 7 and 12 days, depending on the cell line. For analysis, the media was removed, and the cells were fixed with 10% (w/v) formalin for 10 min. Colonies were stained with crystal violet (Sigma-Aldrich, 0.5% [w/v] in 20% [v/v] MeOH) for 10 min and washed thrice with distilled H2O. Plates were imaged using the ChemiDoc imaging system (Bio-Rad) and analysed using the ImageJ ColonyArea plugin as described previously (Guzmán et al, [2014]).

SK-MEL-2 cells = assay: Colony formation assay, SK-MEL-2; format: cell-based, human; settings: 10 µM, 7–12 days
Protocol: as §1

MOLT-4 cells = assay: NCI-60 cancer cell panel, MOLT-4; format: cell-based, human; settings: 10 µM, 3 days
Protocol: (§2) Inhibitors were tested at 10 µM. Data shown is the mean of two technical replicates and is shown relative to the no-drug control, and relative to the time zero number of cells.

UO-31 cells = assay: Colony formation assay, UO-31; format: cell-based, human; settings: 10 µM, 7–12 days
Protocol: as §1

lymphoma line SR = assay: NCI-60 cancer cell panel, SR; format: cell-based, human; settings: 10 µM, 3 days
Protocol: as §2

MiaPaca2 cells = assay: Colony formation assay, MiaPaca2; format: cell-based, human; settings: 10 µM, 7–12 days
Protocol: as §1

USP9X catalytic domain = biological target: T2, USP9X catalytic domain (Homo sapiens, UniProt Q93008); assay: SPR binding assay; settings: SPR, steady state, mean of three repeats; read-out: KD (steady state affinity)
T2 construct: His/SUMO (pOPIN-S vector) (N, cleaved yes); made in house; host or cells: E. coli BL21
T2 sequence (Q93008 1551-1970): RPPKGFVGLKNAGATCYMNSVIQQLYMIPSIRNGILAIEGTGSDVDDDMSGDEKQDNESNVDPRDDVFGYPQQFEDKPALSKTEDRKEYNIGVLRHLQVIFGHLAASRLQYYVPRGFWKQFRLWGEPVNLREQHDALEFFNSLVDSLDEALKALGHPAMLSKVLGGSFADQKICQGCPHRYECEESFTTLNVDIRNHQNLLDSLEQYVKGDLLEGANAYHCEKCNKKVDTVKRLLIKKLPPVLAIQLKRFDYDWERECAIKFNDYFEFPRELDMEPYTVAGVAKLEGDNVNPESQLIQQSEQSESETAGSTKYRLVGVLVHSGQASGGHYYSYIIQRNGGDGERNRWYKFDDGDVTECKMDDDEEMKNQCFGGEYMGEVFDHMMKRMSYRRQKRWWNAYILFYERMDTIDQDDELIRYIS
Protocol: Next, the sample was desalted using PD midiTrap™ G-25 (GE Healthcare) columns following the manufacturer’s instructions and was further purified by SEC, concentrated, and stored at -80 °C. Enzyme activity was tested in a ubiquitin-probe assay. SPR experiments were performed on a Biacore 8 K+ instrument (Cytiva). USP9X catalytic domain with a C-terminal AviTag™ was immobilised in 10 mM HEPES, 150 mM NaCl at pH 7.4 on a Series S Sensor Chip SA (Cytiva) by coupling. […] Running buffer was supplemented with 2% (v/v) DMSO. Multi-cycle kinetics were performed with 120 s associations and 600 s dissociations at 30 µL/min with no further regeneration. Binding constants were determined in Biacore Insight evaluation software (v5.0.18) at steady state, taking the median response over a 5-s window beginning at 10 s before the end of the association phase. Final KD values are the mean of three independent experiments.

[1] = system: CEP55, MKRN2, EDF1, CHMP2B, DTX3L; assay: Immunoblotting of commonly depleted USP9X substrates; format: cell-based, human; settings: MiaPaca2 and SK-MEL-2, 24 h; rescued with proteasomal inhibition (MG132)
Protocol: The next day, cells were lysed in DISC lysis buffer (20 mM TRIS/HCl [pH 7.5], 150 mM NaCl, 2 mM EDTA [pH 8.0], 1% [v/v] Triton X 100, 10% [v/v] glycerol) supplemented with 2% (w/v) SDS and PhosSTOP tablets (Roche). To shred DNA, DISC lysates were run through polypropylene columns (Pierce). […] Next, membranes were washed twice in TBS-T and incubated with primary antibodies at 4 °C o/n. Primary antibodies were diluted in antibody dilution buffer (5% [w/v] BSA [pH 5.2, Sigma-Aldrich] in TBS-T with 0.04% [v/v] sodium azide) as per the manufacturer’s instructions. […] Next, membranes were washed four times for 5 min each in TBS-T. Membranes were developed in ECL (Bio-Rad) and imaged using the ChemiDoc imaging system (Bio-Rad). Images were processed using Image Lab software.

Cc1[nH]c2ccc(C(=O)N3CCN(S(=O)(=O)c4ccc5c(c4)OCCO5)CC3)cc2c1C [WEHI-092]
activity of USP9X/USP24 chimera Δβ in presence of compound (USP9X/USP24 chimera Δβ): remained fully active at concentrations up to 10 µM | inhibition of USP24, commercial panel (USP24): not inhibited | clonogenic potential, DLD-1 (DLD-1 cells): strong decrease in proliferative capacity | clonogenic potential, SK-MEL-2 (SK-MEL-2 cells): sensitive | cell growth, MOLT-4 (MOLT-4 cells): stalling cell growth completely | clonogenic potential, UO-31 (UO-31 cells): sensitive | cell killing, SR (lymphoma line SR): cell death | clonogenic potential, MiaPaca2 (MiaPaca2 cells): strong decrease in proliferative capacity | Kd (USP9X catalytic domain): 1000 nM and 1050 nM | MKRN2, CHMP2B and DTX3L protein levels (Western Blot) [1]: led to protein depletion
